Experiments:
[1] = tested on: malignant pleural mesothelioma cells MSTO-211H; test: Antitumor effect in vivo, subcutaneous transplantation of MSTO-211H cells; design: species or system SCID mouse; conditions: SCID mice, MSTO-211H subcutaneous, miRNA with A6K at tumor site, 13 administrations, 34 days after transplantation, FIG. 13
Description: In order to verify the antitumor effect of the miRNA of the present invention in vivo, experiments was performed with laboratory animals transplanted with malignant pleural mesothelioma cells.
Malignant pleural mesothelioma cells MSTO-211H cells were used.
1: The cells on the dish were washed twice with PBS (-).
2: The cells were detached with trypsin.
3: This was suspended in a medium, and cells were counted.
4: Centrifugation at a condition of 1000 rpm for 3 min was performed to pellet down.
5: The cells were resuspended in PBS (-) in order to obtain 2.0×10^7 cells/mL.
Six weeks-old C-B-17/Icr-scid/scid Jcl (SCID mouse) were used as mice. SCID mice were subcutaneously administered 100 μL of the prepared cell suspension, and the cells were allowed to settle.
Negative control which is the control sequence and miR-3140-3p which is the miRNA of the present invention were employed. A6K (from 3D Matrix) was employed as the nucleic acid delivery reagent. The administration of miRNA to mice was carried out with the following protocol.
1: 100 μM of the nucleic acid (miRNA) was diluted with 10% saline and sterilized water in order to obtain 71.4 μM.
2: 1% A6K solution was sonicated for 5 minutes before use.
3: The diluted nucleic acid and the 1% A6K solution were mixed at a proportion of 1:1 to give the administration nucleic acid. […]

[2] = tested on: malignant pleural mesothelioma cell strain EHMES-10; test: Comparison of antitumor effect with cisplatin in vivo, pleural cavity transplantation; design: species or system mice (C-B-17/Icr-scid/scid Jcl); conditions: miRNA/A6K in pleural cavity versus cisplatin 6 mg/kg intraperitoneal, EHMES-10 in pleural cavity, FIGS. 30-33
From the text: In order to investigate the relative superiority of antitumor effect of miR-3140-3p, the tumor suppression effect of cisplatin which is the first-line drug of malignant pleural mesothelioma and the tumor suppression effect of miR-3140-3p were compared in vivo.
Six weeks-old male mice (C-B-17/Icr-scid/scid Jcl) were used as mice. Malignant pleural mesothelioma cell strain EHMES-10 which expresses the luciferase gene was used as the tumor cell.
The protocol is shown below.
1: Mice were intraperitoneally administered 0.1 mL per 10 g of body weight of a mixed anesthetic drug of medetomidine hydrochloride, midazolam, and butorphanol tartrate.
2: After anesthesia, mouse chest hair was shaved, and an incision was made in the epidermis with scissors.
3: In the mouse pleural cavity 100 μL of tumor cells (3×10^7 cells/mL) was transplanted with a 27 G syringe for insulin.
4: Four days after transplantation, imaging of tumor cells was performed with IVIS Spectrum CT In vivo Imaging System.
5: After imaging, grouping was performed with successfully transplanted mice.
6: Mice were intraperitoneally administered 0.1 mL per 10 g of body weight of a mixed anesthetic drug of medetomidine hydrochloride, midazolam, and butorphanol tartrate to anesthetize the mice. […]

[3] = tested on: large intestine cancer cell strain SW620; test: Cell growth inhibition, cell count after transfection; assay type: cell-based; conditions: SW620, final concentration 10.0 nM, seven days after transfection, FIG. 12
Description: (§1) miR-3140-3p was transfected into large intestine cancer cell strains (SW620, SW480, and HT29), and cell proliferation was observed. Transfection was carried out with the following protocol.
(§2) 1: To a 35 mm dish were added 500 μL of serum free medium (SFM) and 5 μL of RNAiMAX (Invitrogen).
(§3) 2: To the solution from 1 was added 12.5 μL each of miR-Control or miR-3140-3p, miR-22-3p, and miR-34a-5p (stock conc. 2 μM) (final concentration 10.0 nM).
(§4) 3: This was incubated at room temperature for 20 minutes.
(§5) 4: 1.5 mL of a cell suspension diluted to 6.7×10^4 cells/mL was added to the 35 mm dish.
(§6) 5: This was incubated at 37° C. under 5% CO2 condition.
(§7) 6: The cells were counted seven days after transfection.
(§8) Setting the number of control introduction cells as 100%, the survival rate of cells in which miR-3140-3p was introduced was shown in %.

[4] = tested on: large intestine cancer cell strain SW480; test: as above; assay type: cell-based; conditions: SW480, final concentration 10.0 nM, seven days after transfection, FIG. 12
Description: as §1, §2, §3, §4, §5, §6, §7, §8

[5] = tested on: large intestine cancer cell strain HT29; test: as above; assay type: cell-based; conditions: HT29, final concentration 10.0 nM, seven days after transfection, FIG. 12
Description: as §1, §2, §3, §4, §5, §6, §7, §8

[6] = tested on: breast cancer stem cell strain (MDA-MB231-luc-D3H2LN cells); test: Annexin V apoptosis marker expression by FACS; assay type: cell-based; conditions: six days after transfection, FIG. 10 bottom
Description: Moreover, by the protocol below, the expression of apoptosis marker Annexin V in breast cancer cells transfected with miR-3140-3p was analyzed.
1: Transfection of miR-3140-3p was performed with a protocol similar to that described above.
2: Six days after transfection, cells were recovered together with the supernatant.
3: Samples for FACS were prepared according to the protocol of the Annexin V assay kit.
4: Cells stained by Annexin V-FITC were stained with an antibody against cancer stem cell marker CD44 (eBioScience).
5: The prepared samples were analyzed with Cell Sorter (SONY).

[7] = tested on: lung cancer cell strain (A549); test: Cell growth inhibition, cell count after transfection; assay type: cell-based; conditions: A549, final concentration 10.0 nM, six days after transfection, FIG. 11
Description: miR-3140-3p was transfected into lung cancer cell strain (A549), and cell proliferation was observed. […] Transfection was carried out with the following protocol.
as §2
2: To the solution from 1 was added 1 μL each of miR-Control or miR-3140-3p, miR-22-3p, and miR-34a-5p (stock conc. 20 μM) (final concentration 10.0 nM).
as §4, §5, §6
6: The cells were counted six days after transfection.

miR-3140-3p: Mature-miRNA, AGCUUUUGGGAAUUCAGGUAGU (SEQ ID NO. 2) (listed as RNA, chemistry not given here; listed as Homo sapiens)
tumor weight at endpoint compared to the control group [1]: significantly lower | antitumor effect (tumor suppression, survival rates) compared with cisplatin [2]: equivalent or higher compared to cisplatin | cell growth inhibition effect (survival rate of cells, control = 100%) [3]: extremely high cell growth inhibition effect | cell growth inhibition effect (survival rate of cells, control = 100%) [4]: extremely high cell growth inhibition effect | cell growth inhibition effect (survival rate of cells, control = 100%) [5]: extremely high cell growth inhibition effect | apoptosis marker Annexin V positive [6]: 96.97% | cell growth inhibition effect (cell count) [7]: extremely high cell growth inhibition effect

Source: patent publication US11311568B2, “Therapeutic pharmaceutical composition for cancer including miRNA” (Purmx Therapeutics, Inc., priority 2017, dated 2022)
